{"source": "patent US20200078404A1", "about": "“COMBINATION OF A CELL THERAPY AND AN IMMUNOMODULATORY COMPOUND” (Juno Therapeutics, Inc., priority 2017, published 2020)", "key": {"[1]": {"tested_on": "Ikaros", "assay": "Intracellular Ikaros in anti-CD19 CAR-expressing T cells (flow cytometry)", "type": "cell-based, human", "experimental": "Cells of the enriched CD4+ and CD8+ compositions were separately activated with anti-CD3/anti-CD28 beads and subjected to lentiviral transduction with a vector encoding an anti-CD19 CAR. […] Transduced populations then were separately incubated in the presence of stimulating reagents for cell expansion."}, "[2]": {"tested_on": "anti-CD19 CAR-expressing T cells", "assay": "Cytokine production of anti-CD19 CAR-expressing T cells incubated with K562.CD19 target cells", "type": "cell-based, human"}, "[3]": {"tested_on": "K562.CD19 target cells", "assay": "Cytolytic function of anti-CD19 CAR-expressing T cells against K562.CD19 target cells", "type": "cell-based, human", "experimental": "K562.CD19 target cells were transduced with NucLight Red to permit their tracking by microscopy. Cytolytic activity was assessed by measuring the loss of viable target cells over a period of five days, as determined by red fluorescent signal (using the IncuCyte® Live Cell Analysis System, Essen Bioscience)."}, "[4]": {"tested_on": "anti-CD19 CAR-expressing T cells", "assay": "T cell surface markers of anti-CD19 CAR-expressing T cells incubated with K562.CD19", "type": "cell-based, human"}, "[5]": {"tested_on": "anti-CD19 CAR-expressing T cells", "assay": "Surface markers after anti-idiotypic antibody stimulation", "type": "cell-based, human", "text": "CAR-expressing T cells were stained for CD3, CD4, CD8 and the surrogate marker for CAR expression, and also for the following markers: CD25, PD-1, and CD69."}, "[6]": {"tested_on": "anti-CD19 CAR-expressing T cells", "assay": "Serial stimulation with K562.CD19: surface markers", "type": "cell-based, human", "experimental": "(§1) Every 3-4 days (start of each new round), the cells were counted.\nExpression of select surface markers was assessed on cells at day 4 (i.e., 4 days after the first stimulation) and day 28 (i.e., 4 days after the seventh stimulation). Specifically, harvested cells were analyzed by flow cytometry for CD3, CD4, CD8 and the surrogate marker for CAR expression, and also for the following surface markers: CD69, CD107a, PD-1, CD25, CD62L, CCR7, CD45RO, CD27, and LAG3."}, "[7]": {"tested_on": "K562.CD19 target cells", "assay": "Serial stimulation with K562.CD19: cytolytic function at day 24", "type": "cell-based, human", "settings": "day 24 after serial stimulation", "text": "as §1"}, "[8]": {"tested_on": "anti-CD19 CAR-expressing T cells", "assay": "Serial stimulation with K562.CD19: expansion (cell doublings)", "type": "cell-based, human", "text": "as §1"}, "[9]": {"tested_on": "Raji lymphoma tumor cells", "assay": "Raji lymphoma xenograft model, anti-CD19 CAR-expressing cells with Compound 1", "type": "in vivo, mouse", "settings": "Compound 1 0.3 mg/kg i.p. daily, Concurrent and Delayed groups, combined with anti-CD19 CAR-expressing cells, vs CAR-expressing cells alone", "experimental": "The anti-tumor efficacy of CAR-expressing T cells in combination with Compound 1 was assessed by monitoring tumors in a tumor xenograft model. […] T cell compositions were generated from three different donors.\nNOD.Cg.Prkdc^scidIL2rg^tm1Wjl/SzJ (NSG) mice were injected intravenously (i.v.) with 0.5×10^6 Raji lymphoma tumor cells (an immortalized human B lymphocyte tumor cell line that expresses CD19) that were transfected with firefly luciferase (Raji-ffluc). Tumor engraftment was allowed to occur for 6 days and verified using bioluminescence imaging. On Day 7, mice either received no treatment, or a single intravenous (i.v.) injection of anti-CD19 CAR-expressing cells at a low dose (0.5×10^6 cells) or a high dose (1.0×10^6 cells). […] Tumor burden was assessed by bioluminescence every 10 days. For bioluminescence imaging, mice received intraperitoneal (i.p.) injections of luciferin substrate (CaliperLife Sciences, Hopkinton, Mass.) resuspended in PBS (15 μg/g body weight). The average radiance (p/s/cm^2/sr) was determined."}, "[10]": {"tested_on": "anti-CD19 CAR-expressing T cells", "assay": "Cytokine production after anti-idiotypic antibody stimulation", "settings": "anti-idiotypic antibody 0.3-30 μg/ml, 24 hours; Compound 1 100, 1000 nM; lenalidomide 500, 5000 nM"}}}
{"smiles": "Cc1nc2cccc(N)c2c(=O)n1C1CCC(=O)NC1=O", "note": "(stereo not drawn) [Compound 1]", "values": [{"measurement": "reduction in Ikaros expression compared to lenalidomide", "setting": "[1]", "result": "greater reduction in Ikaros expression"}, {"measurement": "intracellular Ikaros expression", "setting": "[1]; CD4+ and CD8+ anti-CD19 CAR-expressing T cells", "result": "concentration-dependent decrease in intracellular Ikaros expression"}, {"measurement": "cytokine production compared to lenalidomide at equivalent concentrations", "setting": "[2]", "result": "greater cytokine production across multiple conditions"}, {"measurement": "cytokine production (IFN-γ, IL-2, TNF-α)", "setting": "[2]; concentration-dependent, E:T 5:1 and 2.5:1, 24 hours, vs vehicle", "result": "increased"}, {"measurement": "cytolytic activity of anti-CD19 CAR-expressing cells", "setting": "[3]; 2.5:1 E:T ratio, some donors", "result": "slightly reduced cytolytic activity"}, {"measurement": "cytolytic activity of anti-CD19 CAR-expressing T cells", "setting": "[3]; 5:1 E:T ratio, high concentrations, Donor 2, no effects with Donors 1 and 3", "result": "slight but consistent increase in cytolytic activity"}, {"measurement": "cytolytic function of anti-CD19 CAR-expressing T cells", "setting": "[3]; five days, three donors", "result": "limited effect on cytolytic function"}, {"measurement": "expression of CD27", "setting": "[4]; all donors and E:T ratios", "result": "downregulated in a concentration-dependent manner"}, {"measurement": "expression of CD45RO", "setting": "[4]; all donors and E:T ratios", "result": "increased"}, {"measurement": "expression of CD69 and LAG3", "setting": "[4]; cells derived from donor 3", "result": "increased in a concentration-dependent manner"}, {"measurement": "surface markers CD25 and CD69", "setting": "[5]; CD4+ and CD8+ CAR-expressing T cells, day 4, some donors", "result": "increase in surface markers CD25 and CD69"}, {"measurement": "expression of PD-1", "setting": "[5]; day 4, unchanged or decreased in the other donors", "result": "increased in the presence of Compound 1 or lenalidomide in cells generated from at least one donor"}, {"measurement": "expression of CD28", "setting": "[6]; CD4+ and CD8+ CAR-expressing T cells, day 28, three donors", "result": "decreased in a dose-dependent manner"}, {"measurement": "PD-1 expression", "setting": "[6]; both E:T ratios, day 4 and day 28", "result": "downregulated to some degree in all donors"}, {"measurement": "CD25 and LAG3 expression", "setting": "[6]; day 4", "result": "upregulated across all three donors"}, {"measurement": "CCR7 expression", "setting": "[6]; day 28", "result": "generally decreased at day 28"}, {"measurement": "cytolytic activity of anti-CD19 CAR-expressing T cells", "setting": "[7]", "result": "increase the cytolytic activity"}, {"measurement": "cell counts of anti-CD19 CAR-expressing T cells", "setting": "[8]; 10 nM and 100 nM Compound 1, after 24 days", "result": "higher than the untreated controls for two out of three donors"}, {"measurement": "number of doublings of CAR+ cells", "setting": "[8]; 500 nM Compound 1, rounds after 3-4 rounds of stimulation", "result": "lower than the untreated control groups"}, {"measurement": "tumor burden and survival", "setting": "[9]", "result": "reduce tumor burden and improve survival data"}, {"measurement": "IFN-γ, IL-2 and TNF-α production", "setting": "[10]", "result": "increased relative to the vehicle control"}]}
